Results as given in ChEMBL document CHEMBL1201862, “PubChem BioAssay data set” (2004).
Active and inactive are the calls of the source.

Legend:
[1] = Counterscreen for inhibitors of Trypanosoma brucei methionyl tRNA synthetase (MetRS): Luminescence-based cell-based high throughput dose response assay to identify compounds that are cytotoxic to Jurkat human T lymphocyte cells.; type: functional
[2] = molecular target: T1, Sentrin-specific protease 1 (Homo sapiens, UniProt Q9P0U3); test: potency of human SENP1 inhibitors, dose response, biochemical, kinetic FRET (AID 651697); type: functional; conditions: read-out: IC50_Mean
T1 sequence (Q9P0U3 whole entry): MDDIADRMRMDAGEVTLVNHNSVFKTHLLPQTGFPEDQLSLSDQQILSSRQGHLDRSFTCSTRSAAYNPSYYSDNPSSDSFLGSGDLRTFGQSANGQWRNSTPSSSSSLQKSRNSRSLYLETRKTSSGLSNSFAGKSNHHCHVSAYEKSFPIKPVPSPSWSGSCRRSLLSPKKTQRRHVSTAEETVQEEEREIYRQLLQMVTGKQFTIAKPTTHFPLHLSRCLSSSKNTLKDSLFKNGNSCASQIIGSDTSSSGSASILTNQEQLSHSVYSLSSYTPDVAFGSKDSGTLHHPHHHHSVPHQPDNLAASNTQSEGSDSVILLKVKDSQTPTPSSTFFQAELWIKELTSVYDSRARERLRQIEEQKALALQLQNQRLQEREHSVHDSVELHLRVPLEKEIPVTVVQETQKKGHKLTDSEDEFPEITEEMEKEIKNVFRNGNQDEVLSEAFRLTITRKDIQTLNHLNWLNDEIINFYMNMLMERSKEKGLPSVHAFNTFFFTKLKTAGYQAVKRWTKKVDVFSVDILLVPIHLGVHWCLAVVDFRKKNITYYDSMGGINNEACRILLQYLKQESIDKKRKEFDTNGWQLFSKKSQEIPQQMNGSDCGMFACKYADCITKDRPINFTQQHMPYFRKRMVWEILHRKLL

[3] = molecular target: T1, Sentrin-specific protease 1; test: Dose response confirmation of small molecule inhibitors of the catalytic domain of the SUMO protease, SENP1 in a FRET assay.; type: functional; conditions: read-out: IC50_Mean
[4] = molecular target: T2, Adenosylmethionine-8-amino-7-oxononanoate aminotransferase (Mycobacterium tuberculosis, UniProt P9WQ81); test: Mycobacterium tuberculosis BioA enzyme inhibitor Measured in Biochemical System Using Plate Reader - 2163-02_Inhibitor_Dose_CherryPick_Activity.; type: functional, Mycobacterium tuberculosis UT205
T2 sequence (P9WQ81 whole entry): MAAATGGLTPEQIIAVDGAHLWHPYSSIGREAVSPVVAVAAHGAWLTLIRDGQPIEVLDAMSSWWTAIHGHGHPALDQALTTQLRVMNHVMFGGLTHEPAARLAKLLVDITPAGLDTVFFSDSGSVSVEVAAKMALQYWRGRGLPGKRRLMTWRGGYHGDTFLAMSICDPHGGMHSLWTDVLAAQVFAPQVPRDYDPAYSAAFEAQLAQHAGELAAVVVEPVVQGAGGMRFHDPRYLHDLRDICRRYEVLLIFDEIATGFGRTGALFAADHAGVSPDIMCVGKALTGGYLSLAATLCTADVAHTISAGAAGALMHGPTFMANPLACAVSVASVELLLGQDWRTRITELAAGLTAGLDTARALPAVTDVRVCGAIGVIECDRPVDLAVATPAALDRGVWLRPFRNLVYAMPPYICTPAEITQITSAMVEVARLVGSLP

[5] = molecular target: T3, Rac GTPase-activating protein 1 (Homo sapiens, UniProt Q9H0H5); test: MgcRacGAP GTPase-activating activity inhibitors, confirmation, biochemical, ADP Hunter fluorescence, primary and confirmatory (AID 624330); type: functional
T3 sequence (Q9H0H5 whole entry): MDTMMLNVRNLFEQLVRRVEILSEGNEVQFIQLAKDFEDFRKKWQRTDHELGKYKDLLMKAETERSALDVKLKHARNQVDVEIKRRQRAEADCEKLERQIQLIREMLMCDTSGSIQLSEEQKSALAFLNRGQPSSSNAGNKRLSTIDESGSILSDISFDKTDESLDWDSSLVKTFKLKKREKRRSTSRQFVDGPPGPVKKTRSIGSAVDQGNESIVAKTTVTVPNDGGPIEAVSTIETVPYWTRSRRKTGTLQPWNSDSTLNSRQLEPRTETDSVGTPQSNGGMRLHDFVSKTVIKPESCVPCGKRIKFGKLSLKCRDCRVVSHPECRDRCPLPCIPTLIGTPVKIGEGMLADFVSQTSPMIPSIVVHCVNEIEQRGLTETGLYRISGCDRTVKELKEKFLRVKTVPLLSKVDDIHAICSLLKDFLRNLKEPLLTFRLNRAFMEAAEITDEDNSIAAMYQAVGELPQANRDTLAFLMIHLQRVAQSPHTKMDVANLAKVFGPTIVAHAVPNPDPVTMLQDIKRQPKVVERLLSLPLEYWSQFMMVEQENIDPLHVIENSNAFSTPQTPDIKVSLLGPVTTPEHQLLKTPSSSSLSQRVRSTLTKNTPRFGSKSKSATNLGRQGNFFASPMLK

BJ [6] = test: cytotoxicity toward BJ-TERT fibroblasts, dose response, cell-based, RAS-independent, luminescence (AID 1933); type: functional; conditions: Homo sapiens
BJ [7] = test: cells; type: functional, cell-based; conditions: Homo sapiens
BJ [8] = test: cytotoxicity toward BJ-TERT-LT-ST fibroblasts, dose response, cell-based, RAS-independent, luminescence (AID 1935); type: functional; conditions: Homo sapiens;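 also: BJ fibroblasts immortalized with TERT plus LT and ST oncogenes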
[9] = cytotoxicity toward DRD oncogenic fibroblasts, dose response, cell-based, non-viral oncogenic, luminescence (AID 1934); type: functional; conditions: Homo sapiens
[10] = molecular target: T4, Apoptotic protease-activating factor 1 (Homo sapiens, UniProt O14727); type: functional
T4 sequence (O14727 whole entry): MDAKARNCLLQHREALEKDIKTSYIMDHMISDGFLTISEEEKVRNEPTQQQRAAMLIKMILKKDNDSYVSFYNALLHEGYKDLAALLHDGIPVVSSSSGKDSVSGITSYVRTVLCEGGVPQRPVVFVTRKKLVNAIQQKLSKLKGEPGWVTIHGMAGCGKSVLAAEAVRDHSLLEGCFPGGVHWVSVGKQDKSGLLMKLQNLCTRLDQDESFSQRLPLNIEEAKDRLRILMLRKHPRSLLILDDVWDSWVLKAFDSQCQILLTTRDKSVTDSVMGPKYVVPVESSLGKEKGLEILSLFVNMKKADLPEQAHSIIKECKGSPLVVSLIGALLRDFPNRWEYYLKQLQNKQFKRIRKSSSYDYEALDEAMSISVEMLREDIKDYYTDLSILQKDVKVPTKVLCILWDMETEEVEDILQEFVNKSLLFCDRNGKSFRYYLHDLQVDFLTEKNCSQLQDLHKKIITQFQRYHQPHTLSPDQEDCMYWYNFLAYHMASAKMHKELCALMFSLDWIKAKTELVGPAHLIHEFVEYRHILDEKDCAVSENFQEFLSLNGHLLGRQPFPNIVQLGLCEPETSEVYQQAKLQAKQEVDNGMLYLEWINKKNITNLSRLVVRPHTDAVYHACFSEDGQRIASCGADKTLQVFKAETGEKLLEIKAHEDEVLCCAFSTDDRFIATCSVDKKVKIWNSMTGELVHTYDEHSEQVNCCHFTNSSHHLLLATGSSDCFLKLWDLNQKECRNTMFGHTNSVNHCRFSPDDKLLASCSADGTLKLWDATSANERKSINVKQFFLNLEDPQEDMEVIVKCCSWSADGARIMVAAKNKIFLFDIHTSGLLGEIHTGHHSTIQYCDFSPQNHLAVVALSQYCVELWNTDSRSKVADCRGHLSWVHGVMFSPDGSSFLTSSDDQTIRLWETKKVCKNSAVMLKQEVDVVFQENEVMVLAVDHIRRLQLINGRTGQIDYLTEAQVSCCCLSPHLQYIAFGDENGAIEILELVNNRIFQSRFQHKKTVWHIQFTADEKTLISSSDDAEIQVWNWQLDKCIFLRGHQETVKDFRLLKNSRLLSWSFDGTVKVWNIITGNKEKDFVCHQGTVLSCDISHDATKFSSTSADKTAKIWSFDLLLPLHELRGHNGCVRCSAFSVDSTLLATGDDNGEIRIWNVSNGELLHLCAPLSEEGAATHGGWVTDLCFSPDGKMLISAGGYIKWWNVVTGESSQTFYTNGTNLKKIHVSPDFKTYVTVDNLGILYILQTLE

[11] = inhibitors of firefly luciferase expression or activity, dose response, H4 neuroglioma cells, luminescence (AID 1990); type: functional, cell-based
[12] = Luminescence Cell-Based Dose Response HTS to Identify Inhibitors of 5'UTR Stem-Loop Driven Prion Protein mRNA Translation in H4 Neuroglioblastoma Cells. [Related pubchem assays: 1827 (Project Summary), 1813 (Primary HTS)]; type: functional
[13] = inhibitors of SNCA 5'UTR-driven reporter translation, confirmation, H4 neuroglioma cells, luminescence (AID 1988); type: functional, cell-based
[14] = microbe, parasite or virus in culture; type: functional; conditions: Mycobacterium tuberculosis
[15] = molecular target: T5, Ubiquitin-conjugating enzyme E2 N (Homo sapiens, UniProt P61088); type: functional;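 also: Dose-response confirmation in a TR-FRET assay detecting UBC13-driven polyubiquitin chain formation, inhibition measured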
T5 sequence (P61088 whole entry): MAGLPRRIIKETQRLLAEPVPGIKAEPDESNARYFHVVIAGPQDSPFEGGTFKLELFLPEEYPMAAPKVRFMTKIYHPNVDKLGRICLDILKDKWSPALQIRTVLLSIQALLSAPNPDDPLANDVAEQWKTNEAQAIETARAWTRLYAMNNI

INS1 = test: beta cell apoptosis inhibitors, cytokine rescue, dose response, luminescence, retest (AID 449756); type: functional, cell-based; conditions: Rattus norvegicus;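 also: cell death triggered by IL-1 beta plus TNF-alpha plus IFN-gamma mixture; protective hits raise ATP signal compared with cytokine alone wells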
[16] = molecular target: ADP-ribosylation factor GTPase-activating protein 1 (Rattus norvegicus, UniProt Q62848); test: Fluorescence polarization-based biochemical high throughput dose response screening assay to identify inhibitors of ADP-ribosylation factor GTPase activating protein 1 (ARFGAP1).; type: functional
ADP-ribosylation factor GTPase-activating protein 1, sequence (Q62848 whole entry): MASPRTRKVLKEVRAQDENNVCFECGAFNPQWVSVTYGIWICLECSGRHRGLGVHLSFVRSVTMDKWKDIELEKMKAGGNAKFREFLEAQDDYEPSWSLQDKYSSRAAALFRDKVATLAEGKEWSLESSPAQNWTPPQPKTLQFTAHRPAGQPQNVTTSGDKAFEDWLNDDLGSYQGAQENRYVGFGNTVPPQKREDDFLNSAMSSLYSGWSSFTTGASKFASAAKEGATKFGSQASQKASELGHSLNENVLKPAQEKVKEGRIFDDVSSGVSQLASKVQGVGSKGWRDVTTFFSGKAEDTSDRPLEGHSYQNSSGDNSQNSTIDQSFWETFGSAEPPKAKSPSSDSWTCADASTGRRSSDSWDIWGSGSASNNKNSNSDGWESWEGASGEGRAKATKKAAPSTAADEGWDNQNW

[17] = molecular target: T6, DNA repair and recombination protein RAD54-like (Homo sapiens, UniProt Q92698); test: inhibitors of human RAD54 branch migration, confirmation, biochemical, fluorescence, cherry-picked samples, dose series (AID 651657); type: functional
T6 sequence (Q92698 whole entry): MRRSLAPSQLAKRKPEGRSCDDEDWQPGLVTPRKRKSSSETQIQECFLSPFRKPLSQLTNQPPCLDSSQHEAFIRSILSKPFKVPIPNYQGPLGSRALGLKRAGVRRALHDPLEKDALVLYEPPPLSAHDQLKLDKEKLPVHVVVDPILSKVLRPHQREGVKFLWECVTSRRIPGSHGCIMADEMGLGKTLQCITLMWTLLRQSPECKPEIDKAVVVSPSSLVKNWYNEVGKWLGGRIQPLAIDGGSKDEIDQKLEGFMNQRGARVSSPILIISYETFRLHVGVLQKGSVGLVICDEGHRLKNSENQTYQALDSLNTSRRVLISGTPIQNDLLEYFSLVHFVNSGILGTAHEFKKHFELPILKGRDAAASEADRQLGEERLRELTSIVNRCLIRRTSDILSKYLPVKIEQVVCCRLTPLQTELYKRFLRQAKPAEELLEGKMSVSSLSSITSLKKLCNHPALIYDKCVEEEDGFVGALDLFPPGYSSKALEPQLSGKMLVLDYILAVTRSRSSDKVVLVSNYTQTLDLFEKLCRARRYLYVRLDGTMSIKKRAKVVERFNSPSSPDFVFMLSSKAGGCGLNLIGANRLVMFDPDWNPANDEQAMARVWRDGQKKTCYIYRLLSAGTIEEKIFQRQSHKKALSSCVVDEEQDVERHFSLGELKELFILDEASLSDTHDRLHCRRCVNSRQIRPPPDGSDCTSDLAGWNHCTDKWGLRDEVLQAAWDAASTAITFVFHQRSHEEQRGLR

[18] = NIH-3T3 fibroblast cytotoxicity, dose response, cytotoxicity control, cell-based, fluorescence, Alamar Blue, secondary assay (AID 2327); type: functional;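 also: NIH-3T3 mouse fibroblasts cultured with fluconazole at 8 µg/mL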
[19] = C. albicans growth with fluconazole, confirmation, fluorescence, retest (AID 2467); type: functional, cell-based

## O=C(Cc1ccc(Br)cc1)NNC(=O)Nc1ccc(Cl)cc1
[1]
  IC50: 83.3 µM (inactive)

## Nc1ccc2c(c1)C(=O)N(CC1CCCO1)C2=O (stereo not given)
[2]
  IC50: 11.1 µM (active)
[3]
  IC50: 8.2 µM (active)

## COc1ccc(NC2CCCN(C(=O)c3ccc(C(C)=O)s3)C2)cc1 (stereo not given)
[4]
  AC50: 1.99 µM (active)
[5]
  IC50: 80.9 µM (active)

## Cc1ccc(NC2=C(C(=O)c3ccccc3)N(C)S(=O)(=O)c3ccccc32)cc1
[2]
  IC50: 26.2 µM (inactive)
[3]
  IC50: 15.4 µM (active)

## COc1ccc(/C=N/NC(=O)CCn2cnc(-c3ccccc3)c2-c2ccccc2)cc1
BJ [6]
  EC50: 1.9 µM (active)
BJ [7]
  EC50: 46.3 µM (active)
BJ [8]
  EC50: 1.75 µM (active)
[9]
  EC50: 1.68 µM (active)
[10]
  IC50: 25.2 µM (active)

## COc1ccc(CNC[C@@H](CCCCN(C)Cc2ccc(OC)cc2)N2C[C@H](c3ccccc3)N(CCc3ccc(Cl)c(Cl)c3)C(=O)C2=O)cc1
[11]
  EC50: > 120 µM (not active)
[12]
  EC50: > 120 µM (not active)
[13]
  EC50: 9.63 µM (active)
[14]
  CC50: 6.46 µM (active)
[15]
  IC50: > 20 µM (inactive)
[10]
  IC50: 46.4 µM (active)
INS1
  AC50: 7.7 µM (active)

## COc1cc(OC)cc(C(=O)Nc2ccccc2-c2nnn(CC(=O)Nc3cc(C)on3)n2)c1
[16]
  IC50: 72.6 µM (inactive)

## Nc1c(C(=O)NCCN2CCOCC2)c2nc3ccccc3nc2n1-c1ccccc1
[17]
  AC50: 52 µM (active)

## COc1ccc2[nH]c(=O)c(CNc3ccccc3OC)cc2c1
[10]
  IC50: 51.4 µM (active)

## O=C(c1ccc([N+](=O)[O-])o1)N(Cc1nnc(-c2ccccc2Cl)o1)C1CC1
[10]
  IC50: > 100 µM (inactive)

## COc1ccc(-c2cc(NC=O)c3ncc(-c4cccc(C(=O)N(C)C)c4)n3c2)cn1
[4]
  AC50: 11.2 µM (active)

## Nc1nc(/C=C/c2cccnc2)nc(-c2ccccc2O)n1
[16]
  IC50: 165 µM (inactive)

## O=c1[nH]c2cc3ccccc3cc2nc1-c1nnnn1Cc1ccccc1
[2]
  IC50: 15.8 µM (active)
[3]
  IC50: 7.19 µM (active)

## COc1cc(/C=C/C(=O)Nc2cccnc2)cc(OC)c1OC
[18]
  EC50: > 160 µM (inactive)
[19]
  EC50: > 38 µM (not active)
[4]
  AC50: 0.629 µM (active)
